Experiment [1] concerns the target Rho kinase 1 (ROCK-I) (Homo sapiens, UniProt Q13464). The experiment is described as follows: In vitro Rho kinase inhibitory activity assay (ADP-Glo), Rho kinase 1. Type of experiment: biochemical. Conditions: 10 μM ATP, 25° C., expressed as range of activity. The procedure:
(§1) The effectiveness of compounds of the present invention to inhibit Rho kinase activity can be determined in a 10 μl assay containing 40 mM Tris pH7.5, 20 mM MgCl2 0.1 mg/ml BSA, 50 μM DTT and 2.5 μM peptide substrate (Myelin Basic Protein) using an ADP-Glo kit (Promega). Compounds were dissolved in DMSO such that the final concentration of DMSO was 1% in the assay. All reactions/incubations are performed at 25° C. Compound (2 ul) and either Rho kinase 1 or 2 (4 μl) were mixed and incubated for 30 mins. Reactions were initiated by addition of ATP (4 μl) such that the final concentration of ATP in the assay was 10 μM. After a 1 hour incubation 10 μl of ADP-Glo Reagent was added and after a further 45 minute incubation 20 ul of Kinase Detection Buffer was added and the mixture incubated for a further 30 minutes. The luminescent signal was measured on a luminometer. […] Compounds were tested in dose-response format and the inhibition of kinase activity was calculated at each concentration of compound. To determine the IC50 (concentration of compound required to inhibit 50% of the enzyme activity) data were fit to a plot of % inhibition vs Log10 compound concentration using a sigmoidal fit with a variable slope and fixing the maximum to 100% and the minimum to 0%. To determine the Ki values the Cheng-Prusoff equation was utilized (Ki=IC50/(1+[S]/Km).
(In general: ADP-Glo first removes unused ATP, then detects ADP through luciferase.)

The target in experiment [2] is Rho kinase 2 (ROCK-II) (Homo sapiens, UniProt O75116). Kind of experiment: In vitro Rho kinase inhibitory activity assay (ADP-Glo), Rho kinase 2. In kind it is biochemical. Conditions: 10 μM ATP, 25° C., expressed as range of activity. The procedure: as §1

Drawing on patent US10501461B2, “Tyrosine amide derivatives as Rho-kinase inhibitors” (CHIESI FARMACEUTICI S.P.A., priority 2017, dated 2019), this text covers Ki for 25 molecules.

A word on the Ki: it is a dissociation constant, usually derived from enzyme kinetics or from competition with a known ligand. A lower Ki goes with higher affinity.

Rho kinase 1 (ROCK-I), sequence (Q13464 whole entry): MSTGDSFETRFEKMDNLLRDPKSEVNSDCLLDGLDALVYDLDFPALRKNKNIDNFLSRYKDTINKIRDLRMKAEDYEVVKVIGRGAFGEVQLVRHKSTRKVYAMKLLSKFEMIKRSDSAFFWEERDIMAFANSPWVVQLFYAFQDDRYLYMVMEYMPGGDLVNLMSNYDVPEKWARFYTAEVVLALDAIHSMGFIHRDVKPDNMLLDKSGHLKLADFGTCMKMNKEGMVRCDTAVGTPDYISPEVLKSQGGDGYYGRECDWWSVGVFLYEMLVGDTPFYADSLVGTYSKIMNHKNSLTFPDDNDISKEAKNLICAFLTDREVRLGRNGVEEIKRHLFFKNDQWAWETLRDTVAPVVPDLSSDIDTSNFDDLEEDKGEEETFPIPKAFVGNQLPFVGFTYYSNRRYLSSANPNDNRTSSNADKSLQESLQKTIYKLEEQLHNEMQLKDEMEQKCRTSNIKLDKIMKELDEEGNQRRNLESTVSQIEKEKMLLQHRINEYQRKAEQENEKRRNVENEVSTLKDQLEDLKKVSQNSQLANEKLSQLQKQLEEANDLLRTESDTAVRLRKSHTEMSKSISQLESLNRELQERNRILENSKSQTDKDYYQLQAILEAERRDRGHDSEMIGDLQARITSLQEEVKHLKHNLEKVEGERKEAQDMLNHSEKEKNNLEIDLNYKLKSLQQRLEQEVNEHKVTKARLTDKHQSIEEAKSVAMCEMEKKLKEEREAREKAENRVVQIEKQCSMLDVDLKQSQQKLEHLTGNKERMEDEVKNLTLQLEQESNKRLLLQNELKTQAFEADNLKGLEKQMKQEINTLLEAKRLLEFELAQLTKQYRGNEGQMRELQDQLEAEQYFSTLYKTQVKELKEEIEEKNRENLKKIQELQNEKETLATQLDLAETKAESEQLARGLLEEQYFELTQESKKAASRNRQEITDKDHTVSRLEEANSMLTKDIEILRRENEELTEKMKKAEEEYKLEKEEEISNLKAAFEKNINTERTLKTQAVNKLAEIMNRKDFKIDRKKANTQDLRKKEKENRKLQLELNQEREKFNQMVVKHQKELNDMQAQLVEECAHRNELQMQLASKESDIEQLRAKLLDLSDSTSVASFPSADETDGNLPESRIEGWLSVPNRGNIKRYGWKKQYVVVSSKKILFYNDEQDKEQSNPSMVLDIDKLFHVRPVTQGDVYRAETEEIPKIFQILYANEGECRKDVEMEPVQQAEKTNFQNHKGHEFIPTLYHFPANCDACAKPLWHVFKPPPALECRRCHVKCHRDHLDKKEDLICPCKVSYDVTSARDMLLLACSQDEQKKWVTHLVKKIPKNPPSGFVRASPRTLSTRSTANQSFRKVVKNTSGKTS
Rho kinase 2 (ROCK-II), sequence (O75116 whole entry): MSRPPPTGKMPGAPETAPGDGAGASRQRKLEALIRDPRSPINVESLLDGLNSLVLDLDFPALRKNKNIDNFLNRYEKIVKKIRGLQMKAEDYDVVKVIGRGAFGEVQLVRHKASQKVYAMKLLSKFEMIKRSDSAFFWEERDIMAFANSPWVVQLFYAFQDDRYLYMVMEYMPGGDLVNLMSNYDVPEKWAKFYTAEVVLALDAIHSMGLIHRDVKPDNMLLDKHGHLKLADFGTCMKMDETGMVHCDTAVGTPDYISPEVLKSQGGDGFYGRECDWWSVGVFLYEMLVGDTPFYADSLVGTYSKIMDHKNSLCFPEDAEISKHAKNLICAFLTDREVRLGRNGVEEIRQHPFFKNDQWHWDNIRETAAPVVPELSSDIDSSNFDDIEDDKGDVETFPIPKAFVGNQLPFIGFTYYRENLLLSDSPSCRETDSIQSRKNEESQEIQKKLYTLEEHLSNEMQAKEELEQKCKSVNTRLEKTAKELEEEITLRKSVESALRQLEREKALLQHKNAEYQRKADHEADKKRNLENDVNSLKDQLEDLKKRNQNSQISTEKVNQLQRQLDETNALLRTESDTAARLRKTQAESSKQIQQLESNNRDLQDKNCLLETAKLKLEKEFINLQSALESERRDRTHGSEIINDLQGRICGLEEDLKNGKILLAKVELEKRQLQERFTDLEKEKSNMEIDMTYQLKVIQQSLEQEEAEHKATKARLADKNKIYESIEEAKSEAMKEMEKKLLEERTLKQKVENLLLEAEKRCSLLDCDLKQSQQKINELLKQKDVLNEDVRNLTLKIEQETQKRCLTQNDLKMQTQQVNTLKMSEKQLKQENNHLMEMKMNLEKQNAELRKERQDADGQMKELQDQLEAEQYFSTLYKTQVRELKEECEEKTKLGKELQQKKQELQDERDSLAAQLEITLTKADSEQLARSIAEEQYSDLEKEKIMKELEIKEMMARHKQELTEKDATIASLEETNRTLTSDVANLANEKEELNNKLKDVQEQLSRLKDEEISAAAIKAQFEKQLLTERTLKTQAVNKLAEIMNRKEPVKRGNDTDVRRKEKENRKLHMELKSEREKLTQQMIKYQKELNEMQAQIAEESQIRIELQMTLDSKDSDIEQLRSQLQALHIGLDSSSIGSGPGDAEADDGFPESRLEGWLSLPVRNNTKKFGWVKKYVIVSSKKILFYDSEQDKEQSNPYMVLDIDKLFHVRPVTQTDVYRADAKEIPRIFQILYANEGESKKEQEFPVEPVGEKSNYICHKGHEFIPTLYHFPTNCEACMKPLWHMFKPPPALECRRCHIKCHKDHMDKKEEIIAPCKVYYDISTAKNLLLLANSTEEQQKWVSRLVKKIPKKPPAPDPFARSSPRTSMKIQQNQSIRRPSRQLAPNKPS

Turning to `Cc1c[nH]c2nccc(Oc3ccc(C[C@H](N)C(=O)NCCCN(C)C)cc3F)c12` [Example 15, (S)-2-amino-N-(3-(dimethylamino)propyl)-3-(3-fluoro-4-((3-methyl-1H-pyrrolo[2,3-b]pyridin-4-yl)oxy)phenyl)propanamide], the inhibition constant Ki in experiment [1] and in experiment [2] was under 3 nM each time.
Turning to `Cc1c[nH]c2nccc(Oc3ccc(C[C@H](N)C(=O)N[C@H]4CN5CCC4CC5)cc3F)c12` [Example 46, (S)-2-amino-3-(3-fluoro-4-((3-methyl-1H-pyrrolo[2,3-b]pyridin-4-yl)oxy)phenyl)-N-((R)-quinuclidin-3-yl)propanamide], the Ki in experiment [1] and in experiment [2] was under 3 nM throughout.
With `CN1C[C@@H]2C[C@H]1CN2C(=O)[C@@H](N)Cc1ccc(Oc2ccnc3[nH]cc(C#N)c23)c(F)c1` [Example 223, 4-(4-((S)-2-amino-3-((1S,4S)-5-methyl-2,5-diazabicyclo[2.2.1]heptan-2-yl)-3-oxopropyl)-2-fluorophenoxy)-1H-pyrrolo[2,3-b]pyridine-3-carbonitrile], the inhibition constant (Ki) in experiment [1] and in experiment [2] was under 3 nM each time.
With `Cc1c[nH]c2nccc(Oc3ccc(CC(N)C(=O)NCCc4ccccc4)cc3F)c12` (centres unmarked) [Example 76, 2-amino-3-(3-fluoro-4-((3-methyl-1H-pyrrolo[2,3-b]pyridin-4-yl)oxy)phenyl)-N-phenethylpropanamide], the Ki in experiment [1] and in experiment [2] was under 3 nM throughout.
Regarding `NC(Cc1ccc(Oc2ccnc3[nH]ccc23)cc1)C(=O)Nc1ccc(C(F)(F)F)cc1` (single isomer, unassigned) [Example 91B, 3-(4-((1H-pyrrolo[2,3-b]pyridin-4-yl)oxy)phenyl)-2-amino-N-(4-(trifluoromethyl)phenyl)propanamide], the Ki in experiment [1] and in experiment [2] was 3 to 30 nM each time.
On to `Cc1c[nH]c2nccc(Oc3ccc(C[C@H](N)C(=O)N4CCN(C(=O)c5ccc(CN(C)C)cc5)CC4)cc3F)c12` [Example 172, (S)-2-amino-1-(4-(4-((dimethylamino)methyl)benzoyl)piperazin-1-yl)-3-(3-fluoro-4-((3-methyl-1H-pyrrolo[2,3-b]pyridin-4-yl)oxy)phenyl)propan-1-one], for which the inhibition constant Ki in experiment [1] and in experiment [2] was under 3 nM throughout.
In the case of `Cc1c[nH]c2nccc(Oc3ccc(C[C@H](N)C(=O)N4CCC(Oc5cccnc5)CC4)cc3F)c12` [Example 11, (S)-2-amino-3-(3-fluoro-4-((3-methyl-1H-pyrrolo[2,3-b]pyridin-4-yl)oxy)phenyl)-1-(4-(pyridin-3-yloxy)piperidin-1-yl)propan-1-one], the Ki in experiment [1] and in experiment [2] was under 3 nM throughout.
As for `Cc1c[nH]c2nccc(Oc3ccc(C[C@H](N)C(=O)NC4CCCCC4)cc3)c12` [Example 141, (S)-2-amino-N-cyclohexyl-3-(4-((3-methyl-1H-pyrrolo[2,3-b]pyridin-4-yl)oxy)phenyl)propanamide], the Ki in experiment [1] and in experiment [2] was under 3 nM in each case.
Regarding `Cc1c[nH]c2nccc(Oc3ccc(C[C@H](N)C(=O)N4CCC(O)(Cc5ccccc5)CC4)cc3F)c12` [Example 9, (S)-2-amino-1-(4-benzyl-4-hydroxypiperidin-1-yl)-3-(3-fluoro-4-((3-methyl-1H-pyrrolo[2,3-b]pyridin-4-yl)oxy)phenyl)propan-1-one], the Ki in experiment [1] and in experiment [2] was under 3 nM throughout.
With `Cc1noc(C2CCN(C(=O)[C@@H](N)Cc3ccc(Oc4ccnc5[nH]cc(C)c45)c(F)c3)C2)n1` (single isomer, unassigned) [Example 8A], the Ki in experiment [1] and in experiment [2] was under 3 nM throughout.
For the molecule `Cc1c[nH]c2ncnc(Oc3ccc(C[C@H](N)C(=O)N4CCC(c5ccncc5)CC4)cc3F)c12` [Example 122, (S)-2-amino-3-(3-fluoro-4-((5-methyl-7H-pyrrolo[2,3-d]pyrimidin-4-yl)oxy)phenyl)-1-(4-(pyridin-4-yl)piperidin-1-yl)propan-1-one], the Ki in experiment [1] was 3 to 30 nM; in experiment [2], under 3 nM.
In the case of `CN(Cc1ccccc1)C(=O)[C@H](N)Cc1ccc(Oc2ccnc3[nH]ccc23)cc1` [Example 144, (R)-3-(4-((1H-pyrrolo[2,3-b]pyridin-4-yl)oxy)phenyl)-2-amino-N-benzyl-N-methylpropanamide], the Ki in experiment [1] and in experiment [2] was over 30 nM in each case.
Turning to `CN(C)C(Cc1ccc(Oc2ccnc3[nH]ccc23)cc1)C(=O)NC1CCOCC1` (centres unmarked) [Example 182, 3-(4-((1H-pyrrolo[2,3-b]pyridin-4-yl)oxy)phenyl)-2-(dimethylamino)-N-(tetrahydro-2H-pyran-4-yl)propanamide], the Ki in experiment [1] and in experiment [2] was over 30 nM each time.
Regarding `CN(C)C(Cc1ccc(Oc2ccnc3[nH]ccc23)cc1)C(=O)NC1CCCCC1` (centres unmarked) [Example 183, 3-(4-((1H-pyrrolo[2,3-b]pyridin-4-yl)oxy)phenyl)-N-cyclohexyl-2-(dimethylamino)propanamide], the values for the Ki in experiment [1] and in experiment [2] were over 30 nM and 3 to 30 nM, respectively.
`Cc1c[nH]c2nccc(Oc3ccc(C[C@H](N)C(=O)N4C[C@H]5CNC[C@H]5C4)cc3F)c12` [Example 31, (S)-2-amino-3-(3-fluoro-4-((3-methyl-1H-pyrrolo[2,3-b]pyridin-4-yl)oxy)phenyl)-1-((3aR,6aS)-hexahydropyrrolo[3,4-c]pyrrol-2(1H)-yl)propan-1-one]: the Ki in experiment [1] and in experiment [2] was under 3 nM each time.
As for `N#Cc1ccc(-c2c[nH]c3nccc(Oc4ccc(C[C@H](N)C(=O)N5CCN(Cc6ccccc6)CC5)cc4)c23)s1` [Example 195, (S)-5-(4-(4-(2-amino-3-(4-benzylpiperazin-1-yl)-3-oxopropyl)phenoxy)-1H-pyrrolo[2,3-b]pyridin-3-yl)thiophene-2-carbonitrile], the inhibition constant (Ki) in experiment [1] and in experiment [2] was under 3 nM in each case.
Take `Cc1c[nH]c2ncnc(Oc3ccc(C[C@H](N)C(=O)N4CCN(C)CC4)cc3F)c12` [Example 118, (S)-2-amino-3-(3-fluoro-4-((5-methyl-7H-pyrrolo[2,3-d]pyrimidin-4-yl)oxy)phenyl)-1-(4-methylpiperazin-1-yl)propan-1-one]: the inhibition constant Ki in experiment [1] and in experiment [2] was 3 to 30 nM in each case.
For the molecule `Cc1c[nH]c2nccc(Oc3ccc(C[C@H](N)C(=O)NC4CCOCC4)cc3F)c12` [Example 54, (S)-2-amino-3-(3-fluoro-4-((3-methyl-1H-pyrrolo[2,3-b]pyridin-4-yl)oxy)phenyl)-N-(tetrahydro-2H-pyran-4-yl)propanamide], the Ki in experiment [1] and in experiment [2] was under 3 nM in each case.
With `Cc1c[nH]c2nccc(Oc3ccc(C[C@H](N)C(=O)NC4CCN(C)CC4)cc3F)c12` [Example 1, (S)-2-amino-3-(3-fluoro-4-((3-methyl-1H-pyrrolo[2,3-b]pyridin-4-yl)oxy)phenyl)-N-(1-methylpiperidin-4-yl)propanamide], the Ki in experiment [1] and in experiment [2] was under 3 nM in each case.
As for `CN1CCC(NC(=O)[C@H](N)Cc2ccc(Oc3ccnc4[nH]ccc34)cc2)CC1` [Example 104, (R)-3-(4-((1H-pyrrolo[2,3-b]pyridin-4-yl)oxy)phenyl)-2-amino-N-(1-methylpiperidin-4-yl)propanamide], the inhibition constant (Ki) in experiment [1] and in experiment [2] was over 30 nM throughout.
As for `Cc1c[nH]c2nccc(Oc3ccc(C[C@H](N)C(=O)NC4(CCO)CCCCC4)cc3F)c12` [Example 36, (S)-2-amino-3-(3-fluoro-4-((3-methyl-1H-pyrrolo[2,3-b]pyridin-4-yl)oxy)phenyl)-N-(1-(2-hydroxyethyl)cyclohexyl)propanamide], the inhibition constant Ki in experiment [1] and in experiment [2] was under 3 nM in each case.
With `CN1CCC(NC(=O)[C@@H](N)Cc2ccc(Oc3ccnc4[nH]ccc34)cc2)CC1` [Example 103, (S)-3-(4-((1H-pyrrolo[2,3-b]pyridin-4-yl)oxy)phenyl)-2-amino-N-(1-methylpiperidin-4-yl)propanamide], the Ki in experiment [1] and in experiment [2] was 3 to 30 nM each time.
Consider `N[C@@H](Cc1ccc(Oc2ccnc3[nH]cc(-c4ccc(O)cc4)c23)cc1)C(=O)NCCc1ccncc1` [Example 206, (S)-2-amino-3-(4-((3-(4-hydroxyphenyl)-1H-pyrrolo[2,3-b]pyridin-4-yl)oxy)phenyl)-N-(2-(pyridin-4-yl)ethyl)propanamide], for which the Ki in experiment [1] and in experiment [2] was under 3 nM each time.
For `Cc1c[nH]c2nccc(Oc3ccc(C[C@H](N)C(=O)N4CCN(Cc5nccn5C)CC4)cc3F)c12` [Example 156, (S)-2-amino-3-(3-fluoro-4-((3-methyl-1H-pyrrolo[2,3-b]pyridin-4-yl)oxy)phenyl)-1-(4-((1-methyl-1H-imidazol-2-yl)methyl)piperazin-1-yl)propan-l-one], the Ki in experiment [1] and in experiment [2] was under 3 nM in each case.
For the molecule `Cc1c[nH]c2nccc(Oc3ccc(C[C@H](N)C(=O)N4CCC(N(C)C)CC4)cc3F)c12` [Example 14, (S)-2-amino-1-(4-(dimethylamino)piperidin-1-yl)-3-(3-fluoro-4-((3-methyl-1H-pyrrolo[2,3-b]pyridin-4-yl)oxy)phenyl)propan-1-one], the inhibitory constant (Ki) in experiment [1] and in experiment [2] was under 3 nM throughout.
